In one data set the test system is Caki-1. In words: Cell viability assay (XTT), Caki-1. Format: cell-based, human. The note with it: 72 h incubation. The source says: Cell Culture: Human renal cell carcinoma lines A498, Caki-1 and UO31, as well as the human prostate carcinoma cell lines DU145 and PC3 were newly obtained for these studies from the American Type Culture Collection (ATCC) (Manassas, Va., USA) and cultured in Roswell Park Memorial Institute (RPMI-1640) (Mediatech Inc., Manassas, Va.) media containing 10% fetal bovine serum (FBS, Life Technologies, Grand Island, N.Y.), 1% Minimum Essential Media (MEM) nonessential amino acids (NEAA, Mediatech) and 1% penicillin-streptomycin (PenStrep, Mediatech). HEK-293T cells were newly purchased from ATCC (Manassas, Va., USA) and maintained in Dulbecco's modified Eagle's medium (DMEM) (Mediatech) supplemented with 10% FBS, 1% NEAA and 1% PenStrep. Normal human renal epithelial cells (RPTC) were purchased from Lifeline Cell Technology (Lifeline Cell Technology, Frederick, Md., USA) and maintained in Lifeline's Renal Life Medium from Lifeline Cell Technology supplemented with 2.4 mM L-glutamine, 5 μg/mL rh insulin, 1.0 nM epinephrine, 10 nM triiodothyronine, 0.1 μg/mL hydrocortisone hemisuccinate, 10 ng/mL rhEGF, 0.50% FBS, 5 μg/mL transferrin PS. All cells were cultured at 37° C. and 5% CO2 in a humidified incubator.
The optical absorbance of each well in a 96-well plate was quantified using BioTek ELx808 absorbance microplate reader (BioTek Winooski, Vt.) set at 450 nm wavelength. The percentage of surviving cells was calculated from the ratio of absorbance of treated to untreated cells.

For another data set, the system named is AKT. In words: Protein kinase expression in Caki-1 whole cell lysates, AKT. The format is cell-based, human. Particulars: Caki-1, 5 μM, by 12 hours post-treatment. The protocol: Whole cell lysates of Caki-1 cells treated with compounds 2 or 6 were also evaluated for their effects on the expression levels of selected protein kinases, namely p90-RSK, AKT and MAPKAPK3. […] Because all three enzymes have been implicated in promoting cell migration and therefore are strong targets for anti-metastasis drugs, these findings predict that compound 2 would be effective in controlling metastatic potential of renal tumors.
Cell lysis and immunoblotting: Caki-1 cells were seeded into 10-cm dishes at a density of 2.2×10^6 and incubated for 24 hours. […]
The protein concentration was determined with BCA protein dye reagent (Pierce, Fisher Scientific Pittsburgh, Pa.). Samples were denatured with 5×SDS sample buffer (0.25% bromophenol blue, 0.5 M dithiothreitol (DTT), 50% glycerol 50% (v/v), 10% sodium dodecyl sulfate (SDS) followed by heating at 95° C. for 5 minutes. Proteins were separated by SDS-PAGE, transferred to a PVDF membrane (Millipore Corp.), and probed with MAPKAPK-3 antibody (Cell Signaling Technology, Danvers, Mass., USA), as well as β-actin antibody (Cell Signaling Technology, Danvers, Mass., USA). Immunoreactive bands of primary antibodies were detected using HRP goat anti-rabbit and secondary antibodies were detected with peroxidase-conjugated secondary antibody and detected by chemiluminescence (Pierce Biotechnology, Rockford, Ill.).

The conditions of data set [1]: end of the study.
Protocol: At the end of the study, liver, kidney and tumor of the animals were harvested, weighed and transferred into glass vials. One ml of water was added to each samples and subjected to ultrasonic tissue disruption at 15 W power for 1 minute. The tissue homogenates were frozen at −80° C. for two hours and lyophilized. The lyophilized product was heated at 90° C. with the concentrated acid mix (described above) for five hours, cooled, diluted with water and analyzed for titanium and gold by ICP-MS.

“[(η-C5H5)2TiMe(μ-mba)Au(PPh3)] [Compound 2]”: in the data set on Caki-1, half-maximal inhibition (IC50) was put at 0.12 ± 0.003 µM. The “expression of AKT” value with AKT is recorded as “dramatic decreases in expression”. In data set [1], the “accumulation in liver and kidney” value was “accumulated in the liver and kidney to a more significant degree”.

For the origin of these results see patent publication US9315531B2, “Titanocene-gold derivatives comprising thiolato ligands” (Research Foundation of the City University of New York, priority 2014, dated 2016).
